Measurements: patent publication US20050222135A1, “Active substance combination” (priority 2004, published 2005)

Tested on: male Swiss albino mice
Conditions: 30 minute period after 2 mg/kg naloxone i.v.; Morphine 5 mg/kg/day s.c. over 4 days, Cizolirtine (as citrate) 40 mg/kg/day i.p.
Method: Pharmacodyn. 1971, 190, pages 213-218 in male Swiss albino mice (weight 20-25 g, Harlan Iberica, S. Feliu de Codinas, Barcelona, Spain).
Withdrawal symptoms are then induced by the intravenous administration of a suitable opioid antagonist in a dose known to those skilled in the art, for example, 2 mg/kg naloxone in case of morphine, 30 minutes after the administration of the final dose of the opioid is completed.
After the administration of 2 mg/kg naloxone 30 minutes after the administration of the final dose of the active substance combination has been completed, the mice are closely watched for withdrawal symptoms, namely jumps and shakes (of the wet dog shake type), which are then counted and registered.

Work on `CN1CC[C@]23c4c5ccc(O)c4O[C@H]2[C@@H](O)C=C[C@H]3[C@H]1C5` [Morphine] yielded a Number of jumps of 6.6.
